# According to ChEMBL document CHEMBL5518158, “Recent advances in triazoles as tyrosinase inhibitors” (Eur J Med Chem, 2023):
# “And” between values parts separate entries of the source, which are not always exact repeats. Equal entries are not always repeated.
# Target: T1, Mushroom tyrosinase (Agaricus bisporus, UniProt O42713+Q00024+C7FF04+C7FF05)
# Experiment: Inhibition of mushroom tyrosinase using L-DOPA as substrate preincubated for 10 mins
# Type: protein assay
row,Structure (SMILES),IC50 [µM]
1,O=c1cc(O)oc(CSc2nnc(-c3ccccc3)n2NCc2ccc(O)cc2O)c1,1.35
2,O=C(CSc1nnc(-c2ccccc2)n1-c1ccc(F)cc1)Nc1ccc(Br)cc1,0.142
3,O=C(CSc1nnc(-c2ccc(F)cc2)n1-c1ccc(F)cc1)Nc1ccccc1,0.124
4,Cn1cnnc1SCc1cc(=O)c(O)co1,19.18
5,Nn1c(SCc2cc(=O)c(O)co2)nnc1-c1ccccc1Br,5.98
6,Nn1c(SCc2cc(=O)c(O)co2)nnc1-c1ccccc1,7.45
7,Nn1c(SCc2cc(=O)c(O)co2)nnc1-c1ccccc1Cl,5.35
8,Cc1ccc(-c2nnc(SCc3cc(=O)c(O)co3)n2N)cc1,6.25
9,Cc1nnc(SCc2cc(=O)c(O)co2)n1N,91.03
10,O=C(CSc1nnc(-c2ccccc2F)n1-c1ccc(F)cc1)Nc1ccccc1,0.11
11,Nn1c(SCc2cc(=O)c(O)co2)nnc1-c1ccc(Cl)cc1,4.5
12,O=c1cc(O)oc(CSc2nnc(-c3ccccc3Cl)n2/N=C/c2ccc(O)c(O)c2)c1,5.2
13,CCCCCn1nc(-c2ccccc2)n(CC(=O)NNC(=O)Nc2ccc(Cl)cc2Cl)c1=O,0.001

# Target: T1, Mushroom tyrosinase
# Experiment: Inhibition of mushroom tyrosinase using L-DOPA as substrate preincubated for 10 mins followed by substrate addition and measured after 15 mins by spectrophotometric method
# Type: protein assay
row,Structure (SMILES),IC50 [µM]
1,Nc1nc(Cc2nnc(SCC(=O)NCCc3ccccc3)n2-c2ccccc2)cs1,0.01
2,CCc1ccc(CNC(=O)CSc2nnc(Cc3csc(N)n3)n2-c2ccccc2)cc1,0.122
3,Cc1ccc(CNC(=O)CSc2nnc(Cc3csc(N)n3)n2-c2ccccc2)cc1C,0.113
4,Cc1ccccc1CNC(=O)CSc1nnc(Cc2csc(N)n2)n1-c1ccccc1,0.015
5,Cc1cccc(CNC(=O)CSc2nnc(Cc3csc(N)n3)n2-c2ccccc2)c1C,2.01
6,Cc1cccc(C)c1CNC(=O)CSc1nnc(Cc2csc(N)n2)n1-c1ccccc1,0.05
7,Cc1cc(C)cc(CNC(=O)CSc2nnc(Cc3csc(N)n3)n2-c2ccccc2)c1,0.24

# Target: T1, Mushroom tyrosinase
# Experiment: Inhibition of mushroom tyrosinase using L-DOPA as substrate pre-treated for 10 mins followed by substrate addition measured for 20 mins by spectrophotometric analysis
# Type: protein assay
row,Structure (SMILES),IC50 [µM]
1,CCn1c(Cc2csc(N)n2)nnc1SCc1cccc(Br)c1,0.002
2,CCn1c(Cc2csc(N)n2)nnc1SCc1ccc(Cl)cc1,0.006
3,CCn1c(Cc2csc(N)n2)nnc1SCc1ccc(Cl)cc1Cl,0.001
4,CCn1c(Cc2csc(N)n2)nnc1SCc1ccccc1Cl,0.006
5,Cc1ccccc1CNC(=O)CSc1nnc(Cc2csc(N)n2)n1-c1ccccc1,16.832

# Target: T1, Mushroom tyrosinase
# Experiment: Inhibition of mushroom tyrosinase
# Type: protein assay
row,Structure (SMILES),IC50 [µM]
1,COc1cc(C=O)ccc1O [VANILLIN],4103
2,COc1cc(/C=N/Nc2nnc(S)n2N)ccc1O,14.6
3,COc1ccc2c(c1)CC/C(=C\c1ccc(OCc3cn(Cc4cccc(Cl)c4)nn3)c(OC)c1)C2=O,4.64
4,Cc1ccc(Cn2cc(COc3ccc(-c4nc5ccccc5[nH]4)cc3)nn2)cc1C,9.42
5,CCOc1ccc(NC(=O)CSc2nnc(CCCc3c[nH]c4ccccc34)n2CC)cc1,0.072
6,O=C1N=C(Nc2ccncc2)S/C1=C\c1ccccc1OCc1cn(Cc2ccccc2Cl)nn1,6.34
7,C=CCc1ccc(O)c(OC)c1 [EUGENOL],923
8,O=C1N=C(Nc2ccccc2)S/C1=C\c1ccc(OCc2cnnn2Cc2ccc(Cl)c(Cl)c2)cc1,49.4
9,CCn1c(CCCc2c[nH]c3ccccc23)nnc1SCC(=O)Nc1c(C)cccc1C,0.035
10,Nn1c(S)nnc1N/N=C/c1cccc(Cl)c1,15
11,O=C1N=C(Nc2ccncc2)S/C1=C\c1ccccc1OCc1cn(Cc2ccc(Cl)c(Cl)c2)nn1,5.9
12,NC(=S)N/N=C/c1ccc(OCc2cn(CC(=O)NCc3ccccc3)nn2)cc1,0.11
13,O=C1N=C(Nc2ccccc2)S/C1=C\c1ccccc1OCc1cn(Cc2ccccc2)nn1,8.92
14,O=C1N=C(Nc2ccccc2)S/C1=C\c1ccccc1OCc1cn(Cc2cccc(Br)c2)nn1,9.81
15,Cc1ccc2nc(-c3ccc(OCc4cn(Cc5ccccc5)nn4)cc3)[nH]c2c1,43.3
16,CCn1c(CCCc2c[nH]c3ccccc23)nnc1SCC(=O)Nc1ccc(C)cc1C,0.034
17,CCn1c(CCCc2c[nH]c3ccccc23)nnc1SCC(=O)Nc1ccccc1C,0.036
18,COc1ccc2c(c1)CC/C(=C\c1ccc(OCc3cn(Cc4ccccc4F)nn3)c(OC)c1)C2=O,67.18
19,COc1ccccc1-n1c(SCC(=O)Nc2ccc(Br)cc2)nnc1-c1ccccc1F,0.0048
20,Cc1ccc(Cn2cc(COc3ccc(-c4nc5ccccc5[nH]4)cc3)nn2)cc1,10.34
21,Nn1c(S)nnc1N/N=C/c1cccc(C(F)(F)F)c1,9
22,COc1ccccc1-n1c(SCC(=O)Nc2ccccc2)nnc1-c1ccccc1,0.0238
23,CCn1c(CCCc2c[nH]c3ccccc23)nnc1SCC(=O)Nc1cccc(C)c1C,0.142
24,COc1ccc(/C=N/Nc2nnc(S)n2N)cc1O,3.4
25,CCc1ccccc1NC(=O)CSc1nnc(CCCc2c[nH]c3ccccc23)n1CC,0.033

# Target: T2, Mushroom tyrosinase (Agaricus bisporus) (UniProt O42713+Q00024+C7FF04+C7FF05)
# Experiment: Inhibition of mushroom tyrosinase at 100 uM relative to control
# Type: protein assay
row,Structure (SMILES),inhibition [%]
1,Nn1c(S)nnc1N/N=C/c1cccc(Cl)c1,81
2,Nn1c(S)nnc1N/N=C/c1cccc(C(F)(F)F)c1,95
3,COc1ccc(/C=N/Nc2nnc(S)n2N)cc1O,98

# Target: T1, Mushroom tyrosinase
# Experiment: Inhibition of mushroom tyrosinase using L-dopa as substrate by spectrophotometric method
# Type: protein assay
row,Structure (SMILES),IC50 [µM]
1,Nn1c(S)nnc1N/N=C\c1cccc(O)c1,7
2,Nn1c(S)nnc1N/N=C\c1cccc(F)c1,12.5
3,Nn1c(S)nnc1N/N=C\c1ccccc1O,1.52

# Target: T1, Mushroom tyrosinase
# Experiment: Inhibition of mushroom tyrosinase using L-DOPA as substrate incubated for 20 mins
# Type: protein assay
row,Structure (SMILES),IC50 [µM]
1,Oc1ccccc1Cc1n[nH]c(=S)n1/N=C/c1ccc[nH]1,26.02
2,Fc1ccc(/C=N/n2c(Cc3ccccc3F)n[nH]c2=S)cc1,10.09
3,Oc1ccc(/C=N/n2c(Cc3ccccc3F)n[nH]c2=S)cc1,6.23
4,COc1ccccc1Cc1n[nH]c(=S)n1/N=C/Cc1ccc(O)cc1,20.27

# Target: T1, Mushroom tyrosinase
# Experiment: Inhibition of mushroom tyrosinase by spectrophotometric method
# Type: protein assay
row,Structure (SMILES),IC50 [µM]
1,CCCCCn1nc(-c2ccccc2)n(CC(=O)NNC(=O)Nc2cccc(C(F)(F)F)c2)c1=O,0.001
2,CCCCCn1nc(-c2ccccc2)n(CC(=O)NNC(=O)Nc2ccccc2C(F)(F)F)c1=O,0.001
3,CCCCCn1nc(-c2ccccc2)n(CC(=O)NNC(=O)Nc2cc(C(F)(F)F)cc(C(F)(F)F)c2)c1=O,0.001

# Target: T1, Mushroom tyrosinase
# Experiment: Binding affinity to mushroom tyrosinase assessed as inhibition constant
# Type: protein assay
row,Structure (SMILES),Ki [µM]
1,Cc1cc(C=C2C(=O)NC(=S)NC2=O)c(OCc2cn(Cc3ccc(F)cc3)nn2)cc1Br,60.27
2,CCCCCn1nc(-c2ccccc2)n(CC(=O)NNC(=O)Nc2ccccc2C(F)(F)F)c1=O,0.01
3,CCCCCn1nc(-c2ccccc2)n(CC(=O)NNC(=S)Nc2ccccc2C(F)(F)F)c1=O,0.1

# Target: T3, Tyrosinase (Homo sapiens, UniProt P14679)
# T3 sequence (P14679 whole entry): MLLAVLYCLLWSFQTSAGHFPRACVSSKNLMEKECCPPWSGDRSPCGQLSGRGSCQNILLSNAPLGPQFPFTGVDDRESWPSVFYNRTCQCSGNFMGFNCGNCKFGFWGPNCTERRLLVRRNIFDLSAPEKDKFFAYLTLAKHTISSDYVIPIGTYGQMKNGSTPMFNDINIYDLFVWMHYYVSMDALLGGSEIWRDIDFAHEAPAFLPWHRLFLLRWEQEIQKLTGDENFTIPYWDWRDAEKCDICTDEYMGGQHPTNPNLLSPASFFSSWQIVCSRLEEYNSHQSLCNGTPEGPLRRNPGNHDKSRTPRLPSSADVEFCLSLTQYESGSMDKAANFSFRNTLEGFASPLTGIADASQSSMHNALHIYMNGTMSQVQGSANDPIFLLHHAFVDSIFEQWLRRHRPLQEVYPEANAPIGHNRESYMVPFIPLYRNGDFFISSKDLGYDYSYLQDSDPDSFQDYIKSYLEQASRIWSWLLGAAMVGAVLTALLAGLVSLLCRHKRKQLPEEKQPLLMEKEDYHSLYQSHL
# Experiment: Inhibition of C-terminal His-tagged truncated form of human tyrosinase using L-DOPA as substrate by spectrophotometric assay
row,Structure (SMILES),IC50 [µM]
1,O=C1c2ccccc2C(=O)N1Cc1cn(Cc2ccccc2Br)nn1,26.5
2,O=C1c2ccccc2C(=O)N1Cc1cn(Cc2cccc(Cl)c2)nn1,48.3
3,O=C1NC(=S)NC(=O)C1=Cc1ccccc1OCc1cn(Cc2ccc(Br)cc2)nn1,44.2
4,O=C1c2ccccc2C(=O)N1Cc1cn(Cc2ccc(Br)cc2)nn1,40.3
5,O=C1c2ccccc2C(=O)N1Cc1cn(Cc2ccccc2Cl)nn1,47.2
6,O=C1c2ccccc2C(=O)N1Cc1cn(Cc2ccccc2[N+](=O)[O-])nn1,26.2

# Target: T2, Mushroom tyrosinase (Agaricus bisporus)
# Experiment: (§1) Inhibition of mushroom tyrosinase using L-DOPA as substrate incubated for 15 mins by spectrophotometric analysis
# Type: protein assay
row,Structure (SMILES),inhibition [%]
1,O=c1oc2ccccc2c2nn(Cc3cn(-c4c(Cl)cc(Cl)cc4Cl)nn3)cc12,58
2,O=c1oc2ccccc2c2c1cnn2Cc1cn(-c2ccccc2)nn1,85
3,O=c1oc2ccccc2c2nn(Cc3cn(-c4ccccc4)nn3)cc12,69

# Target: T1, Mushroom tyrosinase
# Experiment: as §1
# Type: protein assay
row,Structure (SMILES),IC50
1,Cc1cc(C=C2C(=O)NC(=S)NC2=O)c(OCc2cn(Cc3ccc(F)cc3)nn2)cc1Br,24.6 µM
2,O=C1NC(=S)NC(=O)C1=Cc1ccccc1OCc1cn(Cc2ccccc2)nn1,44.2 µM
3,O=C1NC(=O)C(=Cc2ccccc2OCc2cn(Cc3ccccc3)nn2)C(=O)N1,44.2 µM
4,O=C1NC(=O)C(=Cc2ccccc2OCc2cn(Cc3ccc(Br)cc3)nn2)C(=O)N1,26.8 µM and 49.1 µM

# Target: T1, Mushroom tyrosinase
# Experiment: Inhibition of mushroom tyrosinase using L-DOPA as substrate measured for 15 mins by spectrophotometer analysis
# Type: protein assay
row,Structure (SMILES),IC50 [µM]
1,COc1ccc(NC(=O)Cn2cc(COc3ccc(/C=N/NC(N)=S)cc3)nn2)cc1,0.25
2,Cc1c(NC(=O)Cn2cc(COc3ccc(/C=N/NC(N)=S)cc3)nn2)cccc1[N+](=O)[O-],0.12

# Target: T3, Tyrosinase
# Experiment: Competitive inhibition of His-tagged human tyrosinase expressed in HEK293 cells
# Type: cell-based
row,Structure (SMILES),IC50 [µM]
1,NC(=S)N/N=C/c1ccc(OCc2cn(Cc3ccc(Cl)c(Cl)c3)nn2)cc1,0.22
2,Cc1cccc(Cn2cc(COc3ccc(/C=N/NC(N)=S)cc3)nn2)c1,0.22
3,NC(=S)N/N=C/c1ccc(OCc2cn(Cc3ccc(F)cc3)nn2)cc1,0.22
4,Cc1ccc(Cn2cc(COc3ccc(/C=N/NC(N)=S)cc3)nn2)cc1,0.22

# Target: T1, Mushroom tyrosinase
# Experiment: Inhibition of mushroom tyrosinase using L-DOPA as substrate preincubated for 20 mins followed by substrate addition incubated for 10 mins by absorbance based analysis
# Type: protein assay
row,Structure (SMILES),IC50 [µM]
1,O=c1cc(OCc2cn(Cc3cc(=O)c(O)co3)nn2)c2ccccc2o1,0.02
2,O=c1cc(Cn2cc(COc3ccc4c(c3)OCO4)nn2)occ1O,0.06
3,Cc1ccc(C(C)C)cc1OCc1cn(Cc2cc(=O)c(O)co2)nn1,0.07
4,Cc1ccc(C(C)C)c(OCc2cn(Cc3cc(=O)c(O)co3)nn2)c1,0.69
5,O=c1ccc2ccc(OCc3cn(Cc4cc(=O)c(O)co4)nn3)cc2o1,0.23
6,COc1cc(C(C)=O)ccc1OCc1cn(Cc2cc(=O)c(O)co2)nn1,0.03
